The values that follow come from ChEMBL document CHEMBL1201862, “PubChem BioAssay data set” (2004).

Common to all, as to experiment: inhibition of tumour cell growth, NCI panel, 48 h
Assay [1] has as its system NCI-H23.
Assay [2] concerns OVCAR-3.
The test system of assay [3] is DU-145.
Assay [4] relates to MDA-MB-435.
Assay [5] relates to BT-549.
Assay [6] concerns KM12.
Assay [7] relates to UACC-62.
Assay [8] deals with U-251.
Assay [9] deals with UO-31.
The test system of assay [10] is A549.
The test system of assay [11] is RPMI-8226.
Assay [12] deals with SR.
Assay [13] deals with MCF7.
The subject of assay [14] is HCT-15.
Assay [15] deals with RXF 393.
For assay [16], the system named is MOLT-4.
Assay [17] concerns MDA-N.
Assay [18] deals with UACC-257.
Assay [19] deals with CCRF-CEM.

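Tested at 5 concentrations; 48 h exposure; 96-well plates; endpoints linearly interpolated, else capped at highest concentration. GI50 marks 50% less growth.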 Calls of active or inactive are those of the source. Rule as the data show it: active = GI50 up to about 1.1 µM and inactive = higher.

For the molecule `CC(C)(C)OC(=O)NC(Cc1ccc([N+](=O)[O-])cc1)C(=O)NC(CCCCNC(=O)OCc1ccccc1)C(=O)ON1C(=O)CCC1=O` (stereo unspecified), the GI50 in [1], in assay [2], in assay [3], in assay [4], in assay [5] and in assay [6] was > 100 µM (inactive) each time. The GI50 was > 100 µM (inactive) in assay [7]; > 100 µM (inactive) in assay [8]; > 100 µM (inactive) in [9]; > 100 µM (inactive) in assay [10]; 57 µM (inactive) in assay [11]; 49.4 µM (inactive) in [12]. For the same molecule, the GI50 in assay [13] is > 100 µM (inactive); in assay [14], greater than 100 µM; in assay [15] it was > 100 µM (inactive); in assay [16] it was 57.9 µM (inactive); in assay [17] it was > 100 µM (inactive).
With `CC1=CC(=O)c2ccc(C)cc2C1=O` [CHIMAPHILIN], the GI50 in assay [18] was 12.9 µM (inactive); in assay [1], 5.22 µM (inactive); in assay [2] it was 11.8 µM (inactive); in assay [3], 16.8 µM (inactive); in [4], 2.49 µM (inactive); in assay [5] it was 11.6 µM (inactive). The GI50 in assay [6] is 5.96 µM (inactive); in assay [19] it was 2.86 µM (inactive); in assay [7] it was 8.18 µM (inactive); in assay [8], 11.5 µM (inactive); in assay [9] it was 11.4 µM (inactive); in assay [10], 15.9 µM (inactive). Further, the GI50 in [11] was 1.77 µM (inactive); in assay [12] it was 3.4 µM (inactive); in assay [13], 3.05 µM (inactive); in [14], 12.7 µM; in assay [16], 2.41 µM (inactive); in assay [17] it was 0.394 µM (active).
Consider `COc1ccc(-c2c(C#N)c(N)n(C3OCC(O)C(O)C3O)c(=S)c2C#N)cc1` (stereo unspecified), for which the GI50 in assay [1], in assay [2], in assay [3], in [4], in [5] and in assay [6] was > 100 µM (inactive) in each case. Besides, the GI50 in assay [19], in [7], in assay [9], in [10], in [11] and in [12] was > 100 µM (inactive) throughout. Besides, the GI50 in assay [13] was > 100 µM (inactive); in assay [14], greater than 100 µM; in assay [15] it was > 100 µM (inactive); in assay [16] it was > 100 µM (inactive); in [17] it was > 100 µM (inactive).
In the case of `CC(=O)N(C(C)=O)n1c(Cc2ccc(C)cc2)nn(C(C)=O)c1=O`, the GI50 in assay [18], in [1], in [2], in assay [3], in assay [4] and in assay [5] was > 100 µM (inactive) throughout. Besides, the GI50 in assay [6], in [19], in assay [7], in assay [8], in assay [9] and in assay [10] was > 100 µM (inactive) throughout. For the same molecule, the GI50 in assay [11] is > 100 µM (inactive); in assay [12], > 100 µM (inactive); in [13], > 100 µM (inactive); in assay [14], greater than 100 µM; in assay [16] it was > 100 µM (inactive); in assay [17], > 100 µM (inactive).
Turning to `COC1OC2COC(c3ccccc3)OC2C(O)C1OC(=S)c1ccccc1` (stereo unspecified), the GI50 was 50 µM (inactive) in [18]; 59.7 µM (inactive) in [1]; 34.8 µM (inactive) in [2]; 97.3 µM (inactive) in [3]; 1.31 µM (inactive) in [4]; 53.1 µM (inactive) in assay [5]. Further, the GI50 was 19.9 µM (inactive) in assay [19]; 31 µM (inactive) in [7]; 0.188 µM (active) in assay [8]; 61.4 µM (inactive) in assay [9]; 0.607 µM (active) in assay [10]; 15.5 µM (inactive) in assay [11]. Besides, the GI50 in assay [12] was 42.9 µM (inactive); in [13], 36.3 µM (inactive); in assay [14], 28.4 µM; in assay [15] it was 41.4 µM (inactive); in [16], 70.6 µM (inactive); in assay [17], 27.3 µM (inactive).
Regarding `CC(=O)OC(C)c1cc2c(s1)C(=O)c1sccc1C2=O` (stereo unspecified), the GI50 in assay [18] is 0.215 µM (active); in assay [1], 0.221 µM (active); in assay [2], 0.604 µM (active); in assay [3], 0.416 µM (active); in [4], 0.192 µM (active); in assay [5], 0.7 µM (active). Further, the GI50 is 1.75 µM (inactive) in [6]; 2.76 µM (inactive) in [19]; 0.944 µM (active) in [8]; 1.55 µM (inactive) in assay [9]; 1.17 µM (inactive) in [10]; 0.951 µM (active) in assay [11]. Further, the GI50 in assay [12] is 0.51 µM (active); in assay [13], 0.995 µM (active); in assay [14], 0.902 µM; in [15] it was 1.56 µM (inactive); in assay [16], 2.7 µM (inactive); in assay [17], 0.0735 µM (active).
As for `CC1(C)CC(=O)c2c(nc3ccc4ccccc4c3c2-c2ccc(NC(=O)CCCC(=O)Nc3ccc(-c4c5c(nc6ccc7ccccc7c46)CC(C)(C)CC5=O)cc3)cc2)C1`, the GI50 in [18], in assay [1], in [2], in assay [3], in assay [4] and in assay [5] was > 100 µM (inactive) each time. Also, the GI50 in assay [6], in assay [19], in assay [7], in assay [8], in [9] and in assay [10] was > 100 µM (inactive) each time. The GI50 in assay [11] is > 100 µM (inactive); in assay [12] it was > 100 µM (inactive); in assay [13], > 100 µM (inactive); in assay [14] it was greater than 100 µM; in assay [16], > 100 µM (inactive); in assay [17] it was > 100 µM (inactive).
For `COC(=O)C1=C(C(=O)OC)SC2(S1)C(C(=O)OC)=C(C(=O)OC)Sc1c2ss/c1=N\c1ccc(Cl)cc1`, the GI50 was 1.1 µM (active) in assay [18]; 1.83 µM (inactive) in assay [1]; 1.39 µM (inactive) in assay [2]; 0.479 µM (active) in assay [3]; 0.794 µM (active) in [4]; 1.91 µM (inactive) in [5]. Besides, the GI50 is 0.767 µM (active) in [6]; 0.197 µM (active) in assay [19]; 1.19 µM (inactive) in assay [7]; 1.35 µM (inactive) in [8]; 0.804 µM (active) in [9]; 1.56 µM (inactive) in [10]. In addition, the GI50 is 0.277 µM (active) in [12]; 1.11 µM (active) in [13]; 0.318 µM in assay [14]; 0.256 µM (active) in assay [15]; 0.336 µM (active) in assay [16]; 0.47 µM (active) in assay [17].
Regarding `Oc1ccc(/C=N/N=c2\[nH][nH]/c(=N\N=C\c3ccc(O)cc3O)c3ccccc23)c(O)c1`, the GI50 in assay [18] is 0.428 µM (active); in assay [1], 0.326 µM (active); in assay [2], 0.185 µM (active); in [3], 0.338 µM (active); in assay [4], 0.314 µM (active); in assay [5], 0.21 µM (active). Also, the GI50 in assay [6] is 0.275 µM (active); in assay [19], 0.345 µM (active); in [7] it was 0.234 µM (active); in [8] it was 0.2 µM (active); in assay [9] it was 0.388 µM (active); in assay [10], 0.315 µM (active). Moreover, the GI50 in [11] is 0.3 µM (active); in [12], 0.136 µM (active); in [13], 0.274 µM (active); in assay [14], 0.244 µM; in assay [16] it was 0.0865 µM (active); in [17], 0.228 µM (active).
As for `COC(=O)Cn1c(=O)oc2nc(-c3ccccc3)cc(C(F)(F)F)c21`, the GI50 is 95.9 µM (inactive) in assay [18]; > 100 µM (inactive) in assay [1]; 75.3 µM (inactive) in [2]; > 100 µM (inactive) in assay [3]; 49.4 µM (inactive) in assay [4]; > 100 µM (inactive) in [5]. Besides, the GI50 in assay [6] is 69.8 µM (inactive); in [7], > 100 µM (inactive); in [8], 61.2 µM (inactive); in [9] it was > 100 µM (inactive); in [10], 82 µM (inactive); in [11], 27.5 µM (inactive). Besides, the GI50 is 62.2 µM (inactive) in [12]; > 100 µM (inactive) in assay [13]; greater than 100 µM in [14]; > 100 µM (inactive) in assay [15]; 23.6 µM (inactive) in [16]; > 100 µM (inactive) in assay [17].
For `COc1ccc(C(SCCO)(c2ccc(OC)cc2)c2ccc(OC)cc2)cc1`, the GI50 was 13.5 µM (inactive) in [18]; 17.7 µM (inactive) in assay [1]; 10.5 µM (inactive) in assay [2]; 23.4 µM (inactive) in [3]; 5.79 µM (inactive) in [4]; 16.1 µM (inactive) in assay [5]. Moreover, the GI50 in assay [6] was 15.3 µM (inactive); in assay [19], 7.23 µM (inactive); in [7], 14 µM (inactive); in assay [8], 10.6 µM (inactive); in assay [9], 13 µM (inactive); in assay [10], 17.7 µM (inactive). The GI50 is 3.4 µM (inactive) in assay [12]; 14.8 µM (inactive) in [13]; 11.4 µM in assay [14]; 12 µM (inactive) in assay [15]; 10.9 µM (inactive) in assay [16]; 4.9 µM (inactive) in assay [17].
